Reference: BindingDB's records for patent US12552798 (Henan Zhiwei Biomedicine Co., 2026)

Assays:
Assay in all cases: BTK, BMX, EGFR and ITK Inhibitory Assay
[1] = target: Tyrosine-protein kinase BTK (Homo sapiens, UniProt Q06187)
Description: (§1) Kinase inhibitory activities of compounds were evaluated using the Enzyme-linked immunosorbent assay (ELISA). The kinase enzyme of BTK, BMX, EGFR and ITK were purchased from Carna Bioscience (Kobe, Japan). A total of 10 ng/mL antiphosphotyrosine (PY713) antibody (abcam, Cambridge Science Park, UK) was precoated in 96-well ELISA plates. The kinase enzymes in each reaction well were set to BTK (101.25 ng/mL), BMX (90 ng/mL), EGFR (90 ng/mL) or ITK (120 ng/mL) and incubated with indicated compounds in 1× reaction buffer (50 mmol/L HEPES pH 7.4, 20 mmol/L MgCl2, 0.1 mmol/L MnCl2, 1 mmol/L DTT) containing 20 μmol/L (the final concentration of substrate in ITK reaction was 30 μmol/L) substrate (NH2-ETVYSEVRK-biotin) at 25° C. for 1 h. Then, a total of 3 μmol/L ATP was added and the reaction was continued for 2 hrs. The products of reaction were transferred into 96-well ELISA plates containing antibody and incubated at 25° C. for 30 min. After incubation, the wells were washed with PBS and then incubated with horseradish peroxidase […]-conjugated streptavidin. The wells were visualized using 3,3′,5,5′-tetramethylbenzidine (TMB), and chromogenic reaction was ended with 2 mol/L H2SO4, the absorbance was read with a multimode plate reader (PerkinElmer, USA) at 450 nm. IC50 values and curve fits were obtained using Prism (GraphPad Software).

[2] = target: T1, Cytoplasmic tyrosine-protein kinase BMX (Homo sapiens, UniProt P51813)
T1 sequence (P51813 whole entry): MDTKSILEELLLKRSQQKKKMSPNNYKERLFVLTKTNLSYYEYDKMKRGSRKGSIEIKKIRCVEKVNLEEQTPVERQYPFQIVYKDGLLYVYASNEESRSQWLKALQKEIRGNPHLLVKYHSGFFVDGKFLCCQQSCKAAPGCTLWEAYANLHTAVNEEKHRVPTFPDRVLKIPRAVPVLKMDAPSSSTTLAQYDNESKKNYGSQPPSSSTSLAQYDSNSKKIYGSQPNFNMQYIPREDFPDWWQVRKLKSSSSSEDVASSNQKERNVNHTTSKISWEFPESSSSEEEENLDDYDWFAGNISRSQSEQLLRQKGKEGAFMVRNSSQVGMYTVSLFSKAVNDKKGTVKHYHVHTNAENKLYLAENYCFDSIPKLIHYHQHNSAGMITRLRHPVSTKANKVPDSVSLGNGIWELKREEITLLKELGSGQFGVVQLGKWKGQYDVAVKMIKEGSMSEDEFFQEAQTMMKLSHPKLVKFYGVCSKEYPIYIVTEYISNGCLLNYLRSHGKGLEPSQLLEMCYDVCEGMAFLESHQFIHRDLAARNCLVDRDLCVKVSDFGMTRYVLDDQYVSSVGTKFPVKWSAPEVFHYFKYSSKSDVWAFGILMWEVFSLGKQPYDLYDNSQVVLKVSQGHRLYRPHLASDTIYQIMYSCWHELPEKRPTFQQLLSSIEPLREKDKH
Description: as §1

[3] = target: Epidermal growth factor receptor (Homo sapiens, UniProt P00533)
Description: as §1

[4] = target: T2, Tyrosine-protein kinase ITK/TSK (Homo sapiens, UniProt Q08881)
T2 sequence (Q08881 whole entry): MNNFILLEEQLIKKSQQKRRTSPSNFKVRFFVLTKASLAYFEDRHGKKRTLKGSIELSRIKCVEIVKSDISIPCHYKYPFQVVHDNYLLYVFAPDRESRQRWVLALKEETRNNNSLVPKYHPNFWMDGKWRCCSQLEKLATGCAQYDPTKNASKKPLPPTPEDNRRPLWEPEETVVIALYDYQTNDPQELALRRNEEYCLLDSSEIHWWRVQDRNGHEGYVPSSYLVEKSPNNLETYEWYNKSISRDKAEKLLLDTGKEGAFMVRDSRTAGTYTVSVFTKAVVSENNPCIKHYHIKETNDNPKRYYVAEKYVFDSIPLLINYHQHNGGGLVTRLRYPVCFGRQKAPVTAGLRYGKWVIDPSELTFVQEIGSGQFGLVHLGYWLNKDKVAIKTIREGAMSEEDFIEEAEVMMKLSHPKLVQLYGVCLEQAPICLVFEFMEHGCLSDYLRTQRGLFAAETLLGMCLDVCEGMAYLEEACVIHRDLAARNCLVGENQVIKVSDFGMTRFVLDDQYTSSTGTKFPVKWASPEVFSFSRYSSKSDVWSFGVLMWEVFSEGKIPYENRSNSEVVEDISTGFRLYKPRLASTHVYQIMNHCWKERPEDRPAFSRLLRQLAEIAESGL
Description: as §1

Tyrosine-protein kinase BTK, sequence (Q06187 whole entry): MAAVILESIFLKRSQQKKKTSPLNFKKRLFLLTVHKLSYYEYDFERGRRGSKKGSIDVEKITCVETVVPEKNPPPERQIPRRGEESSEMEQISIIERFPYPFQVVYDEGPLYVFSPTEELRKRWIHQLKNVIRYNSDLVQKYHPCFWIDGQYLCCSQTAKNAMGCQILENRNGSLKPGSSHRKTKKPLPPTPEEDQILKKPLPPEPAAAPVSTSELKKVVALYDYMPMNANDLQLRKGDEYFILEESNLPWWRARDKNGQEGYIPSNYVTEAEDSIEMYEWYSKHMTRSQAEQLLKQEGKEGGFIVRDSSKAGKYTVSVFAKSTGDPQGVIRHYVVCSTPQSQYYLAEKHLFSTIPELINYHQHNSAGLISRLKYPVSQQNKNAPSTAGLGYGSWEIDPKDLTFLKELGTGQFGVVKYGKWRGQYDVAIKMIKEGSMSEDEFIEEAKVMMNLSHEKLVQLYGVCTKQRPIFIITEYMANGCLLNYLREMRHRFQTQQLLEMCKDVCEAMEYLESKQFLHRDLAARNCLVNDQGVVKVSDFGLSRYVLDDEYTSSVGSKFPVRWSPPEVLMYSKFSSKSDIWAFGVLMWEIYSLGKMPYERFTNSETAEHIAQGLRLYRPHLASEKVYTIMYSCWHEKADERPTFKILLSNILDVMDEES
Epidermal growth factor receptor, sequence (P00533 whole entry): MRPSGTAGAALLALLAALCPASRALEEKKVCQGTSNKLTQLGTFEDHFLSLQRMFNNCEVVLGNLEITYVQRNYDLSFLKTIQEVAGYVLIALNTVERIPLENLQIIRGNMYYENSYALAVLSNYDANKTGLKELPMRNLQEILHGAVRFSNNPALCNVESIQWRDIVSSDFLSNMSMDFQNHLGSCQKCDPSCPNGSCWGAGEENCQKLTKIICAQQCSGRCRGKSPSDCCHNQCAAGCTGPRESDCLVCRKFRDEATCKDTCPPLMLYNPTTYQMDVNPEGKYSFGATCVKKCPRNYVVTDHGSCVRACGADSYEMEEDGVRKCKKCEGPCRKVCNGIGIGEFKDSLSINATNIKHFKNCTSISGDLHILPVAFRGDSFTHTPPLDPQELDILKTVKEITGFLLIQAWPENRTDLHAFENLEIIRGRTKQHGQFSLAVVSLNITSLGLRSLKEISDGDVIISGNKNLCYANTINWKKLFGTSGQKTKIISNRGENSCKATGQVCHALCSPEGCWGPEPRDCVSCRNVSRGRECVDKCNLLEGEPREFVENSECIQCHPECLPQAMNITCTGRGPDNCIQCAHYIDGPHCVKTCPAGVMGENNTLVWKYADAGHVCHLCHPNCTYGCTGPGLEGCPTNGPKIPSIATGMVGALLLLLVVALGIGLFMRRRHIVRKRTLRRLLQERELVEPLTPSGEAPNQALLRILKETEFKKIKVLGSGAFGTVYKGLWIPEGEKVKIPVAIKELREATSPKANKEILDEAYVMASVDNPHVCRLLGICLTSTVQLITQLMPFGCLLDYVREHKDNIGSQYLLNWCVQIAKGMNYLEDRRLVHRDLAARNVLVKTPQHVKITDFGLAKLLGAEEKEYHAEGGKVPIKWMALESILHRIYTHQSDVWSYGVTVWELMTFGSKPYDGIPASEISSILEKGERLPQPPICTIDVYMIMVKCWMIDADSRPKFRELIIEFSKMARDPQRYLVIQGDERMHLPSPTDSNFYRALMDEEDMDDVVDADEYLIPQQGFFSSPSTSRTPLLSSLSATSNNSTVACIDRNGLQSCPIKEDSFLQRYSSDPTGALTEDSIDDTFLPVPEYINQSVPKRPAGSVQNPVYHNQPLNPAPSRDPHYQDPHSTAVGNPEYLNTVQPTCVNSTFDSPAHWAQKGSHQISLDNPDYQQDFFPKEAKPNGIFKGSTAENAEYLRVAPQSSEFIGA

Compound	IC50 [1] [µM]	IC50 [2] [µM]	IC50 [3] [µM]	IC50 [4] [µM]
CC#CC(=O)N1CC(C2CCNn3c2nc(-c2ccc(Oc4ccccc4)cc2)c3C(N)=O)C1 (stereo not given) [US12552798, Example 19]	0.23	–	–	–
NC(=O)c1c(-c2ccc(Oc3ccccc3)cc2)nc2n1NCCC2C1CN(C(=O)/C=C/C(F)(F)F)C1 (stereo not given) [US12552798, Example 20]	0.008	0.0703	3.24	8.65
